Results taken from patent publication US7612200B2, “Inhibitors of protein kinases” (Locus Pharmaceuticals, Inc., priority 2004, dated 2009).

Experiments:
Type in all cases: biochemical
[1] = target: Tie2 (Homo sapiens, UniProt Q02763); experiment: Tie2 Kinase Activity
Description: (§1) Tie2 Kinase Activity: In a final reaction volume of 25 μl, Tie2 (h) (5-10 mU) is incubated with 8 mM MOPS pH 7.0, 0.2 mM EDTA, 0.5 mM MnCl2, 0.1 mg/ml poly(Glu, Tyr) 4:1, 10 mM MgAcetate and [γ-^33P-ATP] (specific activity approx. 500 cpm/pmol, concentration as required). The reaction is initiated by the addition of the MgATP mix. After incubation for 40 minutes at room temperature, the reaction is stopped by the addition of 5 μl of a 3% phosphoric acid solution. 10 μl of the reaction is then spotted onto a Filtermat A and washed three times for 5 minutes in 75 mM phosphoric acid and once in methanol prior to drying and scintillation counting.

[2] = target: Pyk2 (Homo sapiens, UniProt Q14289); experiment: Protein kinase inhibition, Pyk2; settings: Rate (μM) 2, read-out: % Control
[3] = target: JNK3 (Homo sapiens, UniProt P53779); experiment: JNK3 Kinase Activity; settings: compound at 2 μm
JNK3, sequence (P53779 whole entry): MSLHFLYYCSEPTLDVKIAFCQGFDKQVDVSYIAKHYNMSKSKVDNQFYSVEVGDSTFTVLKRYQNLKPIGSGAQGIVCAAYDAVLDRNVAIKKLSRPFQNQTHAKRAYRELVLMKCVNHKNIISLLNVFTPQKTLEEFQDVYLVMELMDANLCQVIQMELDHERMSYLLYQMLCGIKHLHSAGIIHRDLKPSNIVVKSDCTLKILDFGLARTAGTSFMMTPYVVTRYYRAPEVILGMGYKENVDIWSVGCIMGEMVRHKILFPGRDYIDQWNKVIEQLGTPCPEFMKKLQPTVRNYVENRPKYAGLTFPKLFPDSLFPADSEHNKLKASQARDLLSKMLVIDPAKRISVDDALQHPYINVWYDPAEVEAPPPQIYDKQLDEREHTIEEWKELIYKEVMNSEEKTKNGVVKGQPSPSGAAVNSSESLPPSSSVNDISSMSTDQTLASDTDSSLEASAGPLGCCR
Description: as §1, with “JNK3” for “Tie2”, “50” for “8”, “Tris” for “MOPS”, “7.5, 0.1” for “7.0, 0.2”, “EGTA, 0.1% β-mercaptoethanol, 250 μM peptide,” for “EDTA, 0.5 mM MnCl2, 0.1 mg/ml poly(Glu, Tyr) 4:1,”, “P30 filtermat” for “Filtermat A”

[4] = target: EphA5 (Homo sapiens, UniProt P54756); experiment: Protein kinase inhibition, EphA5; settings: Rate (μM) 2
EphA5, sequence (P54756 25-1037): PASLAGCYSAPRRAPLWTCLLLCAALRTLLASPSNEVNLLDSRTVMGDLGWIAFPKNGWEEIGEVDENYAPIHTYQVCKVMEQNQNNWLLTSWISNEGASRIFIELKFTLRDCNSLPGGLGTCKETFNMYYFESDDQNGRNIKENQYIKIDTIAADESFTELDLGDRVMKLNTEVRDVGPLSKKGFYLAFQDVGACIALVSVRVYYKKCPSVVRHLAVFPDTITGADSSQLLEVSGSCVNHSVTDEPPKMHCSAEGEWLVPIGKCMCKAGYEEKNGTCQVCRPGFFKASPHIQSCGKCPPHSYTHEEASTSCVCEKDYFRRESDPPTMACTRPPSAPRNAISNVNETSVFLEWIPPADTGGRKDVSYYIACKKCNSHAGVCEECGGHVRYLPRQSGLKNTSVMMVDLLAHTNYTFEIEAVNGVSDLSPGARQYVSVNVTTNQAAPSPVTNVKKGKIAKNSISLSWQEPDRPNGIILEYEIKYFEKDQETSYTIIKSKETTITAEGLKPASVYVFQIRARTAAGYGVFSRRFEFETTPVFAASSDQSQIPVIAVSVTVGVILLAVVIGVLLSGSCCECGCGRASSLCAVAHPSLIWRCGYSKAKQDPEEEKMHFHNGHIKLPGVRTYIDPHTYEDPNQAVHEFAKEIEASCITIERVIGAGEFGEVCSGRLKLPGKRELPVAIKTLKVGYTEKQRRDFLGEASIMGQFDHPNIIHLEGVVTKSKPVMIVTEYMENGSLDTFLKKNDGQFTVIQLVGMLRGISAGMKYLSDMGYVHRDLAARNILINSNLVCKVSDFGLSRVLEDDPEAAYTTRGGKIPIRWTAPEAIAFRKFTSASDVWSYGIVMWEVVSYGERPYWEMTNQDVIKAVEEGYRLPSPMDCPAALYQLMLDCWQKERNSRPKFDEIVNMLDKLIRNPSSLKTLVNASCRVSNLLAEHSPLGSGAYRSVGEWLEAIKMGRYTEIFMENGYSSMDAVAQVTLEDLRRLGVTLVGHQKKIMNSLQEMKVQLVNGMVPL

[5] = target: Mnk2 (Homo sapiens, UniProt Q9HBH9); experiment: Protein kinase inhibition, Mnk2; settings: Rate (μM) 2, read-out: % Control
[6] = target: MuSK (Homo sapiens, UniProt O15146); experiment: Protein kinase inhibition, MuSK; settings: Rate (μM) 2, read-out: % Control
MuSK, sequence (O15146 24-869): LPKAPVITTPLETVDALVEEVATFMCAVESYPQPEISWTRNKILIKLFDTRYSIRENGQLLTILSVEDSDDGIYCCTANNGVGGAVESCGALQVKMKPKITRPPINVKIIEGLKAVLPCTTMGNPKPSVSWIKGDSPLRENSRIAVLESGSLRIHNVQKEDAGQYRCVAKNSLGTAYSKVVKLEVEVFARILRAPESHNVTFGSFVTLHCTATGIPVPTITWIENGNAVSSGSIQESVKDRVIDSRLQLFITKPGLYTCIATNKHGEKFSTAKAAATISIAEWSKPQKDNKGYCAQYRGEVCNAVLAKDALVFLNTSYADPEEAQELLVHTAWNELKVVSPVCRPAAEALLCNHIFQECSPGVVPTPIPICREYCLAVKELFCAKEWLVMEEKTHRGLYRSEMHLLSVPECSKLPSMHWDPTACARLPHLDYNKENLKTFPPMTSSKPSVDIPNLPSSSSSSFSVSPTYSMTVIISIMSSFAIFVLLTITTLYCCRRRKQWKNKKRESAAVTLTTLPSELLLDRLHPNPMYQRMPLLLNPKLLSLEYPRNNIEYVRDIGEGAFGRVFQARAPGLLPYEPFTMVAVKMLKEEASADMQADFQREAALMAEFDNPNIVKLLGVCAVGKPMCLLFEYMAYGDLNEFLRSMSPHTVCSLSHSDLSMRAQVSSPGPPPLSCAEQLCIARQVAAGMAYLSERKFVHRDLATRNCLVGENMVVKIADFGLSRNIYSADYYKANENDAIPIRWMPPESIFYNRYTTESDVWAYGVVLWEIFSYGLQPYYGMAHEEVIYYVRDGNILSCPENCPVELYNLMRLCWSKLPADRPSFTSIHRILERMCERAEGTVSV

[7] = target: EphA1 (Homo sapiens, UniProt P21709); experiment: Protein kinase inhibition, EphA1; settings: Rate (μM) 2, read-out: % Control
[8] = target: ROCKI (Homo sapiens, UniProt Q13464); experiment: Protein kinase inhibition, ROCKI (human); settings: Rate (μM) 2, read-out: % Control
[9] = target: TrkA (Homo sapiens, UniProt P04629); experiment: Protein kinase inhibition, TrkA; settings: Rate (μM) 2, read-out: % Control
[10] = target: p38β (Homo sapiens, UniProt Q15759); experiment: SAPK2b Kinase Activity (p38β); settings: compound at 2 μm
Description: (§2) SAPK2b Kinase Activity: In a final reaction volume of 25 μl, SAPK2b (h) (5-10 mU) is incubated with 25 mM Tris pH 7.5, 0.02 mM EGTA, 0.33 mg/ml myelin basic protein, 10 mM MgAcetate and [γ-^33P-ATP] (specific activity approx. 500 cpm/pmol, concentration as required). The reaction is initiated by the addition of the MgATP mix. After incubation for 40 minutes at room temperature, the reaction is stopped by the addition of 5 μl of a 3% phosphoric acid solution. 10 μl of the reaction is the spotted onto a P30 filtermat and washed three times for 5 minutes in 75 mM phosphoric acid and once in methanol prior to drying and scintillation counting.

[11] = target: EphA8 (Homo sapiens, UniProt P29322); experiment: Protein kinase inhibition, EphA8; settings: Rate (μM) 2, read-out: % Control
[12] = target: p38α (Homo sapiens, UniProt Q16539); experiment: SAPK2a Kinase Activity (p38α)
p38α, sequence (Q16539 whole entry): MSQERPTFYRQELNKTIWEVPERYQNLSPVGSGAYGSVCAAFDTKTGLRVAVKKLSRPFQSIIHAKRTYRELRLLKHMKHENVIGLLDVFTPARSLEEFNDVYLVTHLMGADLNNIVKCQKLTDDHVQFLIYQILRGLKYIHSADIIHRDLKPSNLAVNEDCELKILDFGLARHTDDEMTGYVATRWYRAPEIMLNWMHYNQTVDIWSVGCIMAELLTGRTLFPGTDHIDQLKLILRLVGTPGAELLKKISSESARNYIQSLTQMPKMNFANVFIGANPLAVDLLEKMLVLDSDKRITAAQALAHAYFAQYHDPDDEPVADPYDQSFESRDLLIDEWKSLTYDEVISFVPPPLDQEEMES
Description: as §2, with “SAPK2a” for “SAPK2b”

[13] = target: TAK1 (Homo sapiens, UniProt O43318); experiment: Protein kinase inhibition, TAK1; settings: Rate (μM) 2, read-out: % Control
[14] = target: c-RAF (Homo sapiens, UniProt P04049); experiment: c-RAF Kinase Activity
c-RAF, sequence (P04049 whole entry): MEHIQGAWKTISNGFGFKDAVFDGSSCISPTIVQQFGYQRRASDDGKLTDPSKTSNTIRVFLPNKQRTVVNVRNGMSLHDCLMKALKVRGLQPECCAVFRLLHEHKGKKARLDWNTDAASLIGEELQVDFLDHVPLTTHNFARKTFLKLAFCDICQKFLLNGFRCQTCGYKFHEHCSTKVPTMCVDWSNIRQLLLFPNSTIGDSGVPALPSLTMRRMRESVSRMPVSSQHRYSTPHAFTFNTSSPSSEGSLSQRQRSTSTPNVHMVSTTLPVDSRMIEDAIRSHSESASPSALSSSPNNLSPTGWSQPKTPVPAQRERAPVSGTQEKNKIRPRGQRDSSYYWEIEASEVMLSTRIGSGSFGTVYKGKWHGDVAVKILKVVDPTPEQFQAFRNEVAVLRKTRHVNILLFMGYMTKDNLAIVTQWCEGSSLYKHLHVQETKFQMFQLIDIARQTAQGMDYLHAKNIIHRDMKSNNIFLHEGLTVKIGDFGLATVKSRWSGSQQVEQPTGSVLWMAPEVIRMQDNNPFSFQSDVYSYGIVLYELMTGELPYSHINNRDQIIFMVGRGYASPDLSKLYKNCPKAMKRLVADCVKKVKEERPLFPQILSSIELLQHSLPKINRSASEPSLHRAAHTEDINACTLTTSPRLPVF
Description: as §2, with “c-RAF Kinase” for “SAPK2b Kinase”, “μl, c-RAF” for “μl, SAPK2b”, “EGTA, 0.66” for “EGTA, 0.33”, “mM MgAcetate,” for “mM MgAcetate”, “is then” for “is the”

[15] = target: JNK2α2 (Homo sapiens, UniProt P45984); experiment: JNK2α2 Kinase Activity
JNK2α2, sequence (P45984 whole entry): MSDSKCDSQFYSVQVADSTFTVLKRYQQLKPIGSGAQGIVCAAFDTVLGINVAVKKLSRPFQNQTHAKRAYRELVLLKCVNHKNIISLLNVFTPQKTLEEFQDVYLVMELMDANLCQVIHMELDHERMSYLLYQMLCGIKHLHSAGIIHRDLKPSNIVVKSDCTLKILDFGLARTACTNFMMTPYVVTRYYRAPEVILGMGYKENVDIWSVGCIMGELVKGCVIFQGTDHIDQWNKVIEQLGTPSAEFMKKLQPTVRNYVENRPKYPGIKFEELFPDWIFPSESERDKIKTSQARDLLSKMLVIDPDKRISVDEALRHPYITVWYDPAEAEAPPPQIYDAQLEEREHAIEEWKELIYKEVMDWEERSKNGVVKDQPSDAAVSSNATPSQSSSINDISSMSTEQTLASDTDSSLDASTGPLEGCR
Description: as §2, with “JNK2α2 Kinase” for “SAPK2b Kinase”, “μl, JNK2α2” for “μl, SAPK2b”, “with 50” for “with 25”, “7.5, 0.1” for “7.5, 0.02”, “EGTA, 0.1% β-mercaptoethanol, 3 μM ATF2,” for “EGTA, 0.33 mg/ml myelin basic protein,”, “is then” for “is the”

[16] = target: Hck (Homo sapiens, UniProt P08631); experiment: Protein kinase inhibition, Hck; settings: Rate (μM) 2, read-out: % Control

Tie2, sequence (Q02763 23-1124): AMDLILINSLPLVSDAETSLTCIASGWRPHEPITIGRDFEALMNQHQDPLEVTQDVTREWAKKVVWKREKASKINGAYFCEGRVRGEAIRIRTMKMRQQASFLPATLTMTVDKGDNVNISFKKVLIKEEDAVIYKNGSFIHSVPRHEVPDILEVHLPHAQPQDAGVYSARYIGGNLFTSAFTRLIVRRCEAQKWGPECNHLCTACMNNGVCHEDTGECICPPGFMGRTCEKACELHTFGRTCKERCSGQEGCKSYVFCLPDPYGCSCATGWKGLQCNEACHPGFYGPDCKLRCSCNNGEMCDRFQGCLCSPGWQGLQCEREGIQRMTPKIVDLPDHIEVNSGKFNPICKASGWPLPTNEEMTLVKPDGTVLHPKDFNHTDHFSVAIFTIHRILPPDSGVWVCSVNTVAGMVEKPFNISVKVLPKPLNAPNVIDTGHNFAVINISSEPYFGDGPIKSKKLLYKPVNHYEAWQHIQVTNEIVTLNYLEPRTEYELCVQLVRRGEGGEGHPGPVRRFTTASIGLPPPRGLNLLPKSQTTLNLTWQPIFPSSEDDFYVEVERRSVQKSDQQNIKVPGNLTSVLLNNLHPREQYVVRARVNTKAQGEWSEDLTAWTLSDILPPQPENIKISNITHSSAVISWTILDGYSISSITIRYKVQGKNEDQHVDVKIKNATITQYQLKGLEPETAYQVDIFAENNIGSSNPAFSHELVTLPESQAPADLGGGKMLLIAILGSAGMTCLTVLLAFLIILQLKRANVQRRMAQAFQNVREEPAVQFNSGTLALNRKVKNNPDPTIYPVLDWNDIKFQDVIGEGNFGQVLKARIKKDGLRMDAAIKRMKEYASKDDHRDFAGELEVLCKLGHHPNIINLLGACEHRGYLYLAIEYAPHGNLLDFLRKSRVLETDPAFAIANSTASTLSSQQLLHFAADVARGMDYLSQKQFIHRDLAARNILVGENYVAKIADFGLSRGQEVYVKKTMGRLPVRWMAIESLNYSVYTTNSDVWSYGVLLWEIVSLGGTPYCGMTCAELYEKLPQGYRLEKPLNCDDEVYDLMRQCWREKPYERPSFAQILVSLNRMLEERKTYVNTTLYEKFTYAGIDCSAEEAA

SMILES: CC(C)(C)c1cc(C(=O)N2CCS(=O)(=O)CC2)c(NC(=O)Nc2ccc(Oc3ccncc3)cc2)s1 [Example 3, 1-[5-tert-Butyl-3-(1,1-dioxo-1λ^6-thiomorpholine-4-carbonyl)thiophen-2-yl]-3-[4-(pyridin-4-yloxy)phenyl]urea]
- remaining activity at 2 µM ([1]; 40 min, Tie2, Human, Rate (μM) 2, read-out: % Control): 76 to 100%
- % Inhibition at 2 μm ([1]; Tie2, compound at 2 μm): 76-100%
- remaining activity at 2 µM [2]: 51 to 75%
- % Inhibition at 2 μm [3]: 0-25%
- % Control [4]: 76-100%
- remaining activity at 2 µM [5]: 76 to 100%
- remaining activity at 2 µM [6]: 76 to 100%
- remaining activity at 2 µM [7]: 76 to 100%
- remaining activity at 2 µM [8]: 51 to 75%
- remaining activity at 2 µM [9]: 76 to 100%
- % Inhibition at 2 μm [10]: 76-100%
- remaining activity at 2 µM [11]: 76 to 100%
- % inhibition ([12]; P38a, Human, Rate (μM) 2): 76-100%
- % Inhibition at 2 μm ([12]; p38α, compound at 2 μm): 76-100%
- remaining activity at 2 µM [13]: 76 to 100%
- remaining activity at 2 µM ([14]; 40 min, cRaf, Human, Rate (μM) 2, read-out: % Control): 76 to 100%
- % Inhibition at 2 μm ([14]; c-RAF, compound at 2 μm): 76-100%
- % Inhibition at 2 μm ([15]; JNK2a2, compound at 2 μm): 26-50%
- % inhibition ([15]; JNK2α2, Human, Rate (μM) 2): 26-50%
- remaining activity at 2 µM [16]: 76 to 100%
